# Experiments:
# [1] = pH for stable aqueous microemulsion; assay type: physicochemical; conditions: nonionic surfactants Polysorbate 80 and Cremophor/Kolliphor RH-40
# Text: In one embodiment, a flavonoid/polyphenol microemulsion can be made as follows: • The mixing of a flavonoid/polyphenol with an alkali metal component (e.g., alkali metal hydroxide(s) and/or alkaline metal salt(s)) to form an alkali metal flavonoid/polyphenol salt within an aqueous solution. • Adding a surfactant in the ratio from about 5 to 20 wt. % of the flavonoid/polyphenol to 95 to 80 wt. % of a surfactant; preferable a nonionic surfactant. • This mixture is thoroughly stirred to form a uniform clear solution. • Adjusting (e.g., acidifying) the alkali metal flavonoid/polyphenol salt with an agent (e.g., an acidic agent such as acetic acid and/or hydrochloric acid) to a pH level required to form a clear and stable microemulsion.
# Stable microemulsions with apigenin and the nonionic surfactants, Polysorbate 80 and Cremophor/Kolliphor RH-40, were achieved provided a pH level of 8.0 to 8.5 was maintained. For luteolin, it as determined that a pH of 7 was required to maintain a stable aqueous microemulsion; and for resveratrol, a pH of >4.5 to 7.5.
# [2] = Solubilization in Listerine mouth rinse; assay type: physicochemical
# Experimental: 100 Grams of the Listerine® Resveratrol Containing Mouth Rinse Formulation was Prepared as Follows: • 1. 98.4 grams of the Listerine® caramel colored mouth rinse was added to a 300 ml Pyrex glass beaker. The pH of the Listerine® caramel colored mouth rinse was initially determined via pH indicator strips to be decidedly acidic at approximately 4.5. • 2. 1.2 grams of Resveratrol powder was added to the solution of Step 1. • 3. About 0.2 grams of fine NaOH crystals were added to the mixture from Step 2 and thoroughly mixed. A uniformly caramel colored blend resulted with a measured pH of ˜10. […] The pH of the mixture from Step 3 was adjusted to a pH 6.5 by the addition of about 0.2 grams of citric acid crystals. A transparent solution resulted with a resveratrol concentration of 1.2 mg/ml.
# • 1. 98.6 grams of the Listerine® caramel colored mouthrinse was added to a 300 ml Pyrex glass beaker. The pH of the Listerine® caramel colored mouthrinse was initially determined via pH indicator strips to be decidedly acidic at approximately 4.5. • 2. 1.2 grams of Luteolin powder was added to the solution of Step 1. • 3. About 0.2 grams of fine NaOH crystals were added to the mixture from Step 2 and thoroughly mixed. A uniformly caramel colored blend resulted with a measured pH of ˜10. […] The pH of the mixture from Step 2 was adjusted to a pH 8 by the addition of about 0.2 grams of citric acid crystals. […]
# [3] = Saliva levels of apigenin in chronic 1% apigenin toothpaste users (Example 12); assay type: in vivo, human
# Experimental: Two subjects who have used PeroxiCare® with apigenin at a 1% concentration on a chronic basis provided saliva samples at:
# Saliva was collected at each time point in 50 ml Falcon tubes and immediately transferred to a freezer. All samples were transported to Tufts University within 24 hours of collection. Apigenin in saliva was quantified using high performance liquid chromatograph (HPLC) with electrochemical detection (ECD). Apigenin in 1 ml saliva was extracted using 3 ml acetonitrile. After 2 min of rigorous vortexing, the mixture was spun at 2,000 rpm for 15 min at 4° C. Supernatant was dried under N2 gas, reconstituted with mobile phase A, and analyzed for apigenin with HPLC-ECD. The limit of quantification (LOQ) for apigenin and EGCG in this assay is 15 and 25 ng/ml saliva, respectively.
# [4] = Heat solubilization in Kolliphor RH-40 / Polysorbate 80; assay type: physicochemical; conditions: curcumin as co-solubilizer
# Text: Heat Solubilization of 10% curcumin and 4% apigenin in Kolliphor RH-40 (formerly Cremophor)
# Heat Solubilization of 10% Curcumin and 4% Apigenin in Polysorbate 80
# [5] = Solubility in PS80 via the thermal processing method; assay type: physicochemical
# Experimental: Apigenin/Polysorbate 80 (PS80) formulations can be made as follows: • Apigenin powder and PS80 are mixed in the ratio from about 5 to 10 wt. % of apigenin to 95 to 90 wt. % PS80.
# All solubility tests were conducted with 20 ml of PS80 contained within 80 ml Pyrex glass beakers.
# Solubility in water = assay type: physicochemical; conditions: 20° C.
compound,measurement,setting,value
"O=c1cc(-c2ccc(O)c(O)c2)oc2cc(O)cc(O)c12 [luteolin, 3′,4′,5,7-tetrahydroxyflavone]",pH level for stable microemulsion,[1],7
same,concentration in transparent solution,"[2]; Listerine mouthrinse, pH 8",1500 µg/mL
"O=c1cc(-c2ccc(O)cc2)oc2cc(O)cc(O)c12 [Apigenin, 4′,5,7,-trihydroxyflavone]",persistence of apigenin levels in saliva post-brushing,[3],at least 8 hours
same,apigenin solubilized in PS 80,[4],more than 5%
same,apigenin solubilized in RH-40,[4],more than 5%
same,stable apigenin concentrate in PS80,"[5]; 5.0 wt. % apigenin in PS80, heated, cooled to ambient",50 mg/mL
Oc1ccc(C=Cc2cc(O)cc(O)c2)cc1 [resveratrol],concentration in transparent solution,"[2]; Listerine mouth rinse, pH 6.5",1200 µg/mL
O.Oc1cc(O)c2c(c1)O[C@H](c1ccc(O)c(O)c1)[C@@H](O)C2 [Catechin],Water Solubility,Solubility in water,~5 mg/mL
same,PS80 Solubility,"[5]; 20° C., thermal processing, not the maximum solubility levels",50 mg/mL

# From patent US20170071840A1, “POLYPHENOL/FLAVONOID COMPOSITIONS AND METHODS OF FORMULATING ORAL HYGIENIC PRODUCTS” (VIZURI HEALTH SCIENCES LLC, priority 2015, published 2017)
